The numbers were not newly measured in US20070265345A1, “Novel Biphenyl Compounds And Their Use” (SMITHKLINE BEECHAM CORPORATION, priority 2004, published 2007), which cites them from elsewhere.

Each structure is given as a SMILES string.

The subject of the data set is A549 cells.

In the case of `NC(=O)NO` [hydroxyurea], the 50% growth inhibitory concentration (GI50) was 500000 nM.
Take `O=c1[nH]cc(F)c(=O)[nH]1` [5-fluorouracil]: the GI50 is 1000 nM.
Regarding `CC(=O)O[C@H]1C(=O)[C@@]2(C)[C@H]([C@H](OC(=O)c3ccccc3)[C@]3(O)C[C@H](OC(=O)[C@H](O)[C@@H](NC(=O)c4ccccc4)c4ccccc4)C(C)=C1C3(C)C)[C@]1(OC(C)=O)CO[C@@H]1C[C@@H]2O` [paclitaxel], the GI50 is 4 nM.
Consider `COc1cccc2c1C(=O)c1c(O)c3c(c(O)c1C2=O)C[C@@](O)(C(=O)CO)C[C@@H]3O[C@H]1C[C@H](N)[C@H](O)[C@H](C)O1` [doxorubicin], for which the GI50 is 63 nM.

For orientation: GI50 means the concentration that inhibits growth by half.
